Literature values, collected in patent US12011496B2, “Topical macqui berry formulation” (Tracie Martyn International, Inc., priority 2005, dated 2024).

Experiments:
[1] = animal studies
[2] = antioxidant properties
[3] = using only natural ingredients (botanicals, antioxidants, coffe oil and microfine zinc oxide)

Compound: NCCC(=O)N[C@@H](Cc1cnc[nH]1)C(=O)O [Carnosine, β-alanyl-L-histidine]
- safety at dosages above 500 mg/kg body weight [1]: safe

Compound: O=C(/C=C/c1ccc(O)c(O)c1)O[C@H](Cc1ccc(O)c(O)c1)C(=O)O [Rosmarinic acid]
- IC50 [2]: 740 nM

Compound: COc1ccc(C=CC(=O)OCCC(C)C)cc1 [isoamyl-p-methoxycinnamate]
- spf [3]: greater than 30

Compound: C=CCc1cc(OC)c2c(c1)OCO2 [myristicin, 3-methoxy,4,5-methylendioxy-allylbenzene]
- oral psychotropic dose: 400 mg
